Measured values reported in US5372940A, “D-pantolactone hydrolase and process for the preparation thereof” (Fuji Yakuhin Kogyo Kabushiki Kaisha, priority 1990, dated 1994).

Tested on: D-pantolactone hydrolase purified from Fusarium oxysporum (IFO 5942)
Assay: Substrate specificity (Km) and inhibition of purified D-pantolactone hydrolase
Type: biochemical
Conditions: for Km: purified enzyme, the compound is the substrate, read-out: Km (Michaelis constant)
Experimental: Fusarium oxysporum (IFO 5942) was inoculated into each of thirty 2l shake flasks each containing 500 ml of culture medium containing 5% sucrose, 0.4% sodium nitrate, 0.2% dipotassium monohydrogenphosphate, 0.05% magnesium sulfate, 0.05% potassium chloride, 0.001% ferric sulfate and 0.002% zinc sulfate (pH 6.0), and subjected to shaking culture at 28° C. for 7 days. The combined culture broths were centrifuged to give 800 g of wet mass of cells. The cells were triturated by means of a DYNO®-MILL with 2.5 l of 0.1 mM dithiothreitol-containing 20 mM Tris-HCl buffer (pH 7.4), and the mixture was centrifuged to give 2.3 l of cell-free extract. […] Furthermore, 572 g of potassium chloride were added to, and dissolved in, this cell-free extract and the mixture was loaded on an Octyl sepharose CL4B column (3×28 cm) and eluted with 3M potassium chloride. 2.4 l of eluted active fractions were dialyzed against 0.1 mM dithiothreitol-containing 20 mM Tris-HCl buffer (pH 7.4). The resultant 2.9 l of enzyme solution were loaded on a DEAE Sephacel column (5.5×34 cm) and eluted with a linear gradient of 0 to 0.5M potassium chloride. 255 ml of eluted active fractions were loaded on a hydroxyapatite column (5×10 cm) and eluted with a linear gradient of 0 to 0.88M potassium phosphate buffer (pH 7.0). 425 ml of eluted active fractions were subjected to ultrafiltration using an Amicon YM 10, and 115 ml of the resultant enzyme concentrate were dialyzed against 0.1 mM dithiothreitol-containing 20 mM Tris-HCl buffer (pH 7.4). 190 ml of the enzyme solution were subjected to ultrafiltration using an Amicon YM 30 and 14.5 ml of the resultant enzyme solution was loaded on a sephacryl S-300 column (2.5×95 cm) and eluted with 0.2M potassium chloride. 44.5 ml of eluted active fractions were dialyzed against 0.1 mM dithiothreitol-containing 20 mM Tris-HCl buffer (pH 7.4), then loaded on a Q sepharose Fast Flow column (1.8×3 cm) and eluted with a linear gradient of 0 to 1M potassium chloride. 7 ml of eluted active fractions were dialyzed against 0.1 mM dithiothreitol-containing 20 mM Tris-HCl buffer (pH 7.4) to obtain 6.8 ml of purified enzyme solution.
In determining enzyme activity, the enzyme activity which hydrolyzes 1 μmol of D-pantolactone in one minute under the conditions specified below was taken as one unit (U).
50 μl of enzyme solution were added to 200 μl of 10% D-pantolactone solution in 0.5M PIPES buffer (pH 7.0). After reaction at 30° C. for 120 minutes, 250 μl of 2 mM EDTA solution in methanol were added to stop the reaction. The resultant reaction mixture was subjected to HPLC (Nucleosil 5C18 4.6×150 mm; eluent 10% methanol; rate of flow 1 ml/min; detection wavelength 230 nm) to determine the % hydrolysis. For example, where the % hydrolysis is 1%, the enzyme activity/ml of enzyme solution corresponds to 1.6×10^-2 U/ml.
Values in parentheses are those for the activity of the respective metal ions at 2.5 mM concentration as measured with the activity value in the case of no addition of metal ions taken as 100.

| Km | Inhibition of enzyme activity (5 mM EDTA) | Compound |
| --- | --- | --- |
| 3.6 mM |  | O=C1O[C@@H]([C@H](O)CO)[C@H](O)[C@H]1O [D-galactonolactone] |
| 23 mM |  | O=C1O[C@@H]([C@@H](O)CO)[C@@H](O)[C@H]1O [L-mannonolactone] |
|  | inhibited completely | O=C(O)CN(CCN(CC(=O)O)CC(=O)O)CC(=O)O [EDTA, reference compound] |
| 29 mM |  | O=C1O[C@@H]([C@H](O)CO)[C@@H](O)[C@H]1O [D-gulonolactone] |

| Compound | Km | Inhibition of enzyme activity (5 mM EDTA) |
| --- | --- | --- |
| CC1(C)COC(=O)[C@@H]1O [D-pantolactone] | 82 mM |  |
